Results published in US20220264878A1, “HERBICIDAL COMPOSITION CONTAINING R-TYPE PYRIDYLOXY CARBOXYLIC ACID DERIVATIVE AND USE THEREOF” (Qingdao Kingagroot Chemical Compound Co., Ltd., priority 2019, published 2022).

Columns and labels:
Assay type in all cases: in vivo
[1] = tested on: Solanum nigrum; assay: Post-emergence foliage spray, pot culture, fresh weight inhibition (Tables 1-48, 51-98, 101-148; 24 days)
In short: (§1)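 Greenhouse pot-grown weeds (15 per pot, 3 pots, 4 replicates) at the 5–6-leaf (grasses) or 6–7-leaf (broadleaf) stage were sprayed once on foliage at 450 kg/ha spray volume, 0.3 MPa. Acetone solutions were diluted in 0.1% Tween-80. Aboveground fresh weight versus blank control was recorded after 24 days.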

[2] = tested on: Veronica persica^2 (collected in Zhumadian of Henan Province); assay: as above
In short: as §1

[3] = tested on: Veronica didyma; assay: Post-emergence foliage spray, pot culture, fresh weight inhibition (Tables 151-206; 20 days)
Protocol: (§2) Table 151-206: Digitaria sanguinalis, Amaranthus retroflexus, Conyza Canadensis, Capsella bursa-pastoris, Eleusine indica were collected in Huangdao of Shandong Province, Sinapis arvensis were collected in Sixian of Anhui Province, Alopecurus japonicus were collected in Tianchang of Anhui Province, Veronica didyma were collected in Siyang of Jiangsu Province.
(§3) The above weeds were cultivated by a pot culture method. […] Full and uniform weed seeds were selected, soaked in warm water at 25° C. for 6 hours, and germinated in a 28° C. biochemical incubator (darkness). The weed seeds that had just germinatedwere evenly placed on the surface of the soil and then covered with 0.5-1 cm soil according to the sizes of seeds.
(§4) The culture was carried out in a controllable sunlight greenhouse at 20 to 30° C., in natural light, and relative humidity of 57% to 72%.
(§5) The technical materials were all dissolved in acetone, and diluted with an aqueous solution containing 0.1% emulsifier Tween-80. The dilution is performed as required.
(§6) A ratio of the active ingredient A to the active ingredient B and amounts thereof in each group depends on the characteristics and toxicity of the two agents, as well as the main application purpose of a corresponding formulation. Based on the pre-tests in this study, the dosage of the active ingredient A and B applied alone and in combination were shown in the tables. Water containing the solvent and emulsifier same with the above groups but free of the agents was used as a blank control.
(§7) Table 1-48, 51-98, 101-148, 151-206: […] per treatment, that is, a total of 60 weeds were treated in one treatment.
(§8) Table 151-206: The agents were used for only once in the experiment. In the stage of weeds with 3˜4 leaves, the weeds were thinned out to maintain 15 weeds per pot and 45 weeds for each treatment, then continued to be cultured to 4˜5 leaves stage of grassy weeds, 5˜6 leaves stage of broadleaf weeds, and treated.
(§9) The well-cultured weeds were evenly placed on a platform with an area of 0.5 m^2, and a solution of agents was sprayed on the stems and leaves thereof by the 3WP-2000-type walking spray tower at a dosage of 450 kg/ha and at a spray pressure of 0.3 MPa. After all the solution was sprayed, the valve was closed. After 30 seconds, the door of the spray tower was opened, and the nutritional bowl was taken out. Then the valve was opened, and the spray tube was cleaned by spraying 50 ml of water.
(§10) A pot-culture method was employed. For the cultivation of weeds, please refer to the Section 1.1), and “Pesticide guidelines for laboratory bioactivity tests—herbicides”. As to a method for applying agents, please refer to the section 2.3.2), that is, a foliage treatment was employed. After the treatment, the weeds were routinely cultured in a greenhouse.
(§11) A method for investigating absolute number was employed, wherein whole seedlings of survival weeds were cut off with a blade along the soil surface, and the fresh weight of the weeds was weighed with an analytical balance. For dead weeds, the fresh weight thereof was zero.
(§12) Table 151-206: The investigation was performed after 20 days of the treatment for only once.
(§13) Theoretical fresh weight inhibition rate of a combination of two active ingredients in each group was calculated by the Gowing method (E0=X+Y−X*Y/100), and then compared with an actually measured inhibition rate (E), thereby effect of the combination (hereafter referred to as combined effect) on weeds was evaluated: the value of E-E0, which was greater than 10%, corresponded to a synergistic effect, the value of E-E0, which was less than −10%, corresponded to an antagonistic effect, and the value of E-E0, which was from −10% to 10%, corresponded to an additional effect.

[4] = tested on: Eleusine indica; assay: Post-emergence foliage spray, pot culture, fresh weight inhibition (Tables 1-48, 51-98, 101-148; 24 days)
In short: as §1

[5] = tested on: Chloris virgata; assay: as above
In short: as §1

[6] = tested on: Conyza Canadensis; assay: Post-emergence foliage spray, pot culture, fresh weight inhibition (Tables 151-206; 20 days)
Protocol: as §2, §3, §4, §5, §6, §7, §8, §9, §10, §11, §12, §13

[7] = B alone 75 g a.i./ha, 20 days after treatment
[8] = B alone 150 g a.i./ha, 20 days after treatment
[9] = B alone 300 g a.i./ha, 20 days after treatment
[10] = B alone 600 g a.i./ha, 20 days after treatment

CCOC(=O)C(Cl)Cc1cc(-n2nc(C)n(C(F)F)c2=O)c(F)cc1Cl (centres unmarked) [carfentrazone-ethyl]
Control effect (%) of B applied alone in corresponding dose ([1]; B 1.875 g a.i./ha): 6.3%
Control effect (%) of B applied alone in corresponding dose ([1]; B 3.75 g a.i./ha): 12.1%
Control effect (%) of B applied alone in corresponding dose ([1]; B 7.5 g a.i./ha): 38.0%
Control effect (%) of B applied alone in corresponding dose ([1]; B 15 g a.i./ha): 68.7%
Control effect (%) of B applied alone in corresponding dose ([2]; Table 90, 1.875 g a.i./ha): 2.6%
Control effect (%) of B applied alone in corresponding dose ([2]; Table 90, 3.75 g a.i./ha): 11.6%
Control effect (%) of B applied alone in corresponding dose ([2]; Table 90, 7.5 g a.i./ha): 36.2%
Control effect (%) of B applied alone in corresponding dose ([2]; Table 90, 15 g a.i./ha): 68.2%

O=C(Nc1ccc(F)cc1F)c1cccnc1Oc1cccc(C(F)(F)F)c1 [diflufenican]
Control effect (%) of B applied alone in corresponding dose ([1]; B 15 g a.i./ha): 6.0%
Control effect (%) of B applied alone in corresponding dose ([1]; B 30 g a.i./ha): 15.0%
Control effect (%) of B applied alone in corresponding dose ([1]; B 60 g a.i./ha): 41.7%
Control effect (%) of B applied alone in corresponding dose ([1]; B 120 g a.i./ha): 76.5%
Control effect (%) of B applied alone in corresponding dose ([2]; Table 87, 15 g a.i./ha): 2.3%
Control effect (%) of B applied alone in corresponding dose ([2]; Table 87, 30 g a.i./ha): 10.2%
Control effect (%) of B applied alone in corresponding dose ([2]; Table 87, 60 g a.i./ha): 40.3%
Control effect (%) of B applied alone in corresponding dose ([2]; Table 87, 120 g a.i./ha): 76.2%

c1cc[n+]2c(c1)-c1cccc[n+]1CC2 [diquat Dibromide monohydrate]
Control effect (%) of B applied alone in corresponding dose ([3]; B 75 g a.i./ha, 20 days): 5.5%
Control effect (%) of B applied alone in corresponding dose ([3]; B 150 g a.i./ha, 20 days): 12.6%
Control effect (%) of B applied alone in corresponding dose ([3]; B 300 g a.i./ha, 20 days): 41.3%
Control effect (%) of B applied alone in corresponding dose ([3]; B 600 g a.i./ha, 20 days): 80.4%
Control effect (%) of B applied alone in corresponding dose [3, 7]: 5.5%
Control effect (%) of B applied alone in corresponding dose [3, 8]: 12.6%
Control effect (%) of B applied alone in corresponding dose [3, 9]: 41.3%
Control effect (%) of B applied alone in corresponding dose [3, 10]: 80.4%

O=C1C(Cl)C(CCl)CN1c1cccc(C(F)(F)F)c1 (centres unmarked) [flurochloridone]
Control effect (%) of B applied alone in corresponding dose ([1]; B 75 g a.i./ha): 5.5%
Control effect (%) of B applied alone in corresponding dose ([1]; B 150 g a.i./ha): 13.7%
Control effect (%) of B applied alone in corresponding dose ([1]; B 300 g a.i./ha): 45.8%
Control effect (%) of B applied alone in corresponding dose ([1]; B 600 g a.i./ha): 79.7%
Control effect (%) of B applied alone in corresponding dose ([2]; Table 88, 75 g a.i./ha): 2.1%
Control effect (%) of B applied alone in corresponding dose ([2]; Table 88, 150 g a.i./ha): 12.3%
Control effect (%) of B applied alone in corresponding dose ([2]; Table 88, 300 g a.i./ha): 44.5%
Control effect (%) of B applied alone in corresponding dose ([2]; Table 88, 600 g a.i./ha): 79.6%

CS(=O)(=O)c1ccc(C(=O)C2C(=O)CCCC2=O)c([N+](=O)[O-])c1 [mesotrione]
Control effect (%) of B applied alone in corresponding dose ([4]; Table 82, 15 g a.i./ha): 4.0%
Control effect (%) of B applied alone in corresponding dose ([4]; Table 82, 30 g a.i./ha): 10.9%
Control effect (%) of B applied alone in corresponding dose ([4]; Table 82, 60 g a.i./ha): 36.9%
Control effect (%) of B applied alone in corresponding dose ([4]; Table 82, 120 g a.i./ha): 75.0%
Control effect (%) of B applied alone in corresponding dose ([5]; B 15 g a.i./ha): 6.5%
Control effect (%) of B applied alone in corresponding dose ([5]; B 30 g a.i./ha): 13.4%
Control effect (%) of B applied alone in corresponding dose ([5]; B 60 g a.i./ha): 38.3%
Control effect (%) of B applied alone in corresponding dose ([5]; B 120 g a.i./ha): 75.2%

C[n+]1ccc(-c2cc[n+](C)cc2)cc1 [paraquat dichloride]
Control effect (%) of B applied alone in corresponding dose ([6]; B 75 g a.i./ha, 20 days): 3.2%
Control effect (%) of B applied alone in corresponding dose ([6]; B 150 g a.i./ha, 20 days): 17.2%
Control effect (%) of B applied alone in corresponding dose ([6]; B 300 g a.i./ha, 20 days): 47.9%
Control effect (%) of B applied alone in corresponding dose ([6]; B 600 g a.i./ha, 20 days): 75.2%
Control effect (%) of B applied alone in corresponding dose [6, 7]: 3.2%
Control effect (%) of B applied alone in corresponding dose [6, 8]: 17.2%
Control effect (%) of B applied alone in corresponding dose [6, 9]: 47.9%
Control effect (%) of B applied alone in corresponding dose [6, 10]: 75.2%

CS(=O)(=O)c1ccc(C(=O)C2C(=O)CCCC2=O)c(Cl)c1COCC(F)(F)F [tembotrione]
Control effect (%) of B applied alone in corresponding dose ([4]; Table 83, 3.75 g a.i./ha): 5.4%
Control effect (%) of B applied alone in corresponding dose ([4]; Table 83, 7.5 g a.i./ha): 12.3%
Control effect (%) of B applied alone in corresponding dose ([4]; Table 83, 15 g a.i./ha): 39.7%
Control effect (%) of B applied alone in corresponding dose ([4]; Table 83, 30 g a.i./ha): 73.1%
Control effect (%) of B applied alone in corresponding dose ([5]; B 3.75 g a.i./ha): 4.0%
Control effect (%) of B applied alone in corresponding dose ([5]; B 7.5 g a.i./ha): 12.3%
Control effect (%) of B applied alone in corresponding dose ([5]; B 15 g a.i./ha): 41.0%
Control effect (%) of B applied alone in corresponding dose ([5]; B 30 g a.i./ha): 73.4%
